≈ marks a conversion by molar mass, not a printed value.
Assays:
[1] = Solubility in water (stirred in water, filtrate analysed by HPLC)
Procedure: After stirring, the supernatant was filtered by a membrane filter (0.45µm) and a filtate was analyzed by HPLC.

[2] = tested on: tubulin (a main constituting protein of the microtubule); experiment: Tubulin polymerization-promoting / depolymerization-inhibiting activity (absorbance at 350 nm); type: biochemical; conditions: for Depolymerization-inhibiting activity / Polymerization-promoting activity: relative activity, paclitaxel taken as 100, 5µM; for Depolymerization-inhibiting activity: absorbance at 350 nm 5 minutes after addition of calcium chloride; for Polymerization-promoting activity: tubulin, 37°C, 15 minutes, absorbance at 350 nm
Procedure: Next, each of the above-described samples is mixed with tubulin (a main constituting protein of the microtubule) and allowed to react at 37°C for 15 minutes. Absorbance at 350 nm of the reaction solution was measured at 2, 5, 10 and 15 minutes after initiation of the reaction. Also, after the reaction ended, calcium chloride was added and. 5 minutes after its addition, absorbance at 350 nm was again measured. From each measured value the relative activity of each sample was determined such that polymerization-promoting activity and depolymerization - inhibiting activity were taken as 100, and the results are shown in Table 2.

[3] = Stability in aqueous solution; type: physicochemical; conditions: decomposed to paclitaxel
Description: As clearly shown in the Table compared with paclitaxel, the solubility of paclitaxel derivatives show strikingly high values.

[4] = I.Ringer et al., J. Natl. Cancer Inst., 83, 288 (1991); cited from earlier work
[5] = in water, 10 mg in 5 ml water, stirred for 18 hours, filtered 0.45µm, HPLC

Row | Structure (SMILES) | Solubility ([1]; 18 h) [µg/mL] | solubility at 18 h ([1]; water, thermodynamic from solid) [µg/mL] | Depolymerization-inhibiting activity [2] | Polymerization-promoting activity [2] | stability in aqueous solutions [3] | solubility in water relative to paclitaxel [1] [times] | Solubility [1, 5] [µg/mL] | depolymerization-inhibiting activity compared with paclitaxel ([2]; statement in words, comparison with paclitaxel) | solubility of docetaxel in water relative to paclitaxel [4] [times]
1 | CC(=O)O[C@H]1C(=O)[C@@]2(C)[C@H]([C@H](OC(=O)c3ccccc3)[C@]3(O)C[C@H](OC(=O)[C@H](O)[C@@H](NC(=O)c4ccccc4)c4ccccc4)C(C)=C1C3(C)C)[C@]1(OC(C)=O)CO[C@@H]1C[C@@H]2O [Paclitaxel, reference compound] | 0.4 (≈ 0.468 µM) | 0.4 (≈ 0.468 µM) | 100 | 100 | – | – | – | – | –
2 | CC(=O)O[C@H]1C(=O)[C@]2(C)[C@@H](OC(=O)COC3O[C@H](CO)[C@@H](O)[C@H](O)[C@H]3O)C[C@H]3OC[C@@]3(OC(C)=O)[C@H]2[C@H](OC(=O)c2ccccc2)[C@]2(O)C[C@H](OC(=O)[C@H](OC(=O)COC3O[C@H](CO)[C@@H](O)[C@H](O)[C@H]3O)[C@@H](NC(=O)c3ccccc3)c3ccccc3)C(C)=C1C2(C)C (some centres unmarked) [2',7-S-paclitaxel, Diglucosyloxyacetyl-2',7-paclitaxe] | – | – | 77.7 | 40.5 | unstable in aqueous solutions | 121 | 48.4 (≈ 37.4 µM) | – | –
3 | CC(=O)O[C@H]1C(=O)[C@]2(C)[C@@H](OC(=O)COC3O[C@H](CO)[C@@H](O)[C@H](O)[C@H]3O)C[C@H]3OC[C@@]3(OC(C)=O)[C@H]2[C@H](OC(=O)c2ccccc2)[C@]2(O)C[C@H](OC(=O)[C@H](O)[C@@H](NC(=O)c3ccccc3)c3ccccc3)C(C)=C1C2(C)C (some centres unmarked) [7-S-paclitaxel, Glucosyloxyacetyl-7-paclitaxel] | – | – | 225 | 91.9 | – | 36.8 | 14.7 (≈ 13.7 µM) | more than twice as potent as that of paclitaxel | –
4 | CC(=O)O[C@H]1C(=O)[C@@]2(C)[C@H]([C@H](OC(=O)c3ccccc3)[C@]3(O)C[C@H](OC(=O)[C@H](OC(=O)COC4O[C@H](CO)[C@@H](O)[C@H](O)[C@H]4O)[C@@H](NC(=O)c4ccccc4)c4ccccc4)C(C)=C1C3(C)C)[C@]1(OC(C)=O)CO[C@@H]1C[C@@H]2O (some centres unmarked) [2'-S-paclitaxel, Glucosyloxyacetyl-2'-paclitaxel] | – | – | 100 | 52.7 | unstable in aqueous solutions | 76.5 | 30.6 (≈ 28.5 µM) | – | –
5 | CC(=O)O[C@@]12CO[C@@H]1C[C@H](O)[C@@]1(C)C(=O)[C@H](O)C3=C(C)[C@@H](OC(=O)[C@H](O)[C@@H](NC(=O)OC(C)(C)C)c4ccccc4)C[C@@](O)([C@@H](OC(=O)c4ccccc4)[C@H]21)C3(C)C [docetaxel] | – | – | – | – | – | – | – | – | 1.3

— EP0882732B1, “Taxoid derivative and method of producing thereof” (Ensuiko Sugar Refining Company, Limited, priority 1997, dated 1998)
